Results reported in paper PMC5218480 (PLoS ONE, 2017).

Tested on: MV-4-11 cells
Test: Gene expression microarray analysis (Affymetrix PrimeView) and GSEA
Format: cell-based, human
Design: RFU PODN (11730768_x_at) / Fold change /veh PODN (11730768_x_at) / RFU LINC00158 (11744669_a_at) / Fold change /veh LINC00158 (11744669_a_at) / RFU DUSP10 (11751237_a_at) / Fold change /veh DUSP10 (11751237_a_at) / RFU ID3 (11757404_x_at) / Fold change /veh ID3 (11757404_x_at) / RFU PLEKHG5 (11737974_s_at) / Fold change /veh PLEKHG5 (11737974_s_at) / RFU LRRC4B (11730491_at) / Fold change /veh LRRC4B (11730491_at) / RFU GIMAP4 (11747438_a_at) / Fold change /veh GIMAP4 (11747438_a_at) / RFU KRT8 (11758183_x_at) / Fold change /veh KRT8 (11758183_x_at) / RFU CNN1 (11734310_a_at) / Fold change /veh CNN1 (11734310_a_at) / RFU VPS37D (11726825_at) / Fold change /veh VPS37D (11726825_at) / RFU C10orf10 (11716522_x_at) / Fold change /veh C10orf10 (11716522_x_at) / RFU KIR2DL2 /// KIR2DL4 /// KIR2DL5A /// KIR2DL5B /// KIR2DS1 /// KIR2DS2 /// KIR2DS3 /// KIR2DS4 /// KIR3DL3 /// KIR3DL3 /// KIR3DS1 (11738374_at) / Fold change /veh KIR2DL2 /// KIR2DL4 /// KIR2DL5A /// KIR2DL5B /// KIR2DS1 /// KIR2DS2 /// KIR2DS3 /// KIR2DS4 /// KIR3DL3 /// KIR3DL3 /// KIR3DS1 (11738374_at) / RFU C1QL1 (11718748_at) / Fold change /veh C1QL1 (11718748_at) / RFU TMPRSS4 (11747572_a_at) / Fold change /veh TMPRSS4 (11747572_a_at) / RFU HAMP (11756126_x_at) / Fold change /veh HAMP (11756126_x_at) / RFU RNFT2 (11725882_a_at) / Fold change /veh RNFT2 (11725882_a_at) / RFU NR4A2 (11747474_a_at) / Fold change /veh NR4A2 (11747474_a_at) / RFU ABCC12 (11746883_a_at) / Fold change /veh ABCC12 (11746883_a_at) / RFU TMEM136 (11760407_x_at) / Fold change /veh TMEM136 (11760407_x_at) / RFU CLDN22 /// WWC2 (11732394_at) / Fold change /veh CLDN22 /// WWC2 (11732394_at) / RFU HLA-DPB1 (11760878_x_at) / Fold change /veh HLA-DPB1 (11760878_x_at) / RFU SPINT1 (11716480_a_at) / Fold change /veh SPINT1 (11716480_a_at) / RFU GAP43 (11754022_s_at) / Fold change /veh GAP43 (11754022_s_at) / RFU A4GNT (11735810_at) / Fold change /veh A4GNT (11735810_at) / RFU PRB3 (11715151_x_at) / Fold change /veh PRB3 (11715151_x_at) / RFU TUBB4B (11761932_at) / Fold change /veh TUBB4B (11761932_at) / RFU CAPN14 (11732068_a_at) / Fold change /veh CAPN14 (11732068_a_at) / RFU TMCC2 (11721928_a_at) / Fold change /veh TMCC2 (11721928_a_at) / RFU IRGQ (11745062_a_at) / Fold change /veh IRGQ (11745062_a_at) / RFU FAM174B (11720279_a_at) / Fold change /veh FAM174B (11720279_a_at) / RFU TMPRSS4 (11748680_a_at) / Fold change /veh TMPRSS4 (11748680_a_at) / RFU FAM212B (11763350_a_at) / Fold change /veh FAM212B (11763350_a_at) / RFU PLEKHG5 (11743358_a_at) / Fold change /veh PLEKHG5 (11743358_a_at) / RFU ZSCAN30 (11745921_a_at) / Fold change /veh ZSCAN30 (11745921_a_at) / RFU CMKLR1 (11741424_a_at) / Fold change /veh CMKLR1 (11741424_a_at) / RFU LOC101060620 /// MAPK8IP1 (11723275_at) / Fold change /veh LOC101060620 /// MAPK8IP1 (11723275_at) / RFU SPTSSB (11747773_x_at) / Fold change /veh SPTSSB (11747773_x_at) / RFU PRSS12 (11739890_at) / Fold change /veh PRSS12 (11739890_at) / RFU BIN1 (11741810_x_at) / Fold change /veh BIN1 (11741810_x_at) / RFU WNT11 (11732464_a_at) / Fold change /veh WNT11 (11732464_a_at) / RFU C10orf10 (11716521_a_at) / Fold change /veh C10orf10 (11716521_a_at) / RFU C5orf56 (11738089_at) / Fold change /veh C5orf56 (11738089_at) / RFU CYB561 (11721691_x_at) / Fold change /veh CYB561 (11721691_x_at) / RFU ANKRD19P (11752326_a_at) / Fold change /veh ANKRD19P (11752326_a_at) / RFU OR2T12 /// OR2T33 /// OR2T8 (11738714_s_at) / Fold change /veh OR2T12 /// OR2T33 /// OR2T8 (11738714_s_at) / RFU VCAN (11748164_a_at) / Fold change /veh VCAN (11748164_a_at) / RFU JSRP1 (11732532_at) / Fold change /veh JSRP1 (11732532_at) / RFU KRTAP10-11 (11738290_x_at) / Fold change /veh KRTAP10-11 (11738290_x_at) / RFU MYO3A (11730013_a_at) / Fold change /veh MYO3A (11730013_a_at) / RFU EBF3 (11725865_a_at) / Fold change /veh EBF3 (11725865_a_at) / RFU CAMK2N1 (11719241_x_at) / Fold change /veh CAMK2N1 (11719241_x_at) / RFU C5orf56 (11738088_a_at) / Fold change /veh C5orf56 (11738088_a_at) / RFU OLFML3 (11715873_a_at) / Fold change /veh OLFML3 (11715873_a_at) / RFU LOC100653217 /// NTM (11731650_a_at) / Fold change /veh LOC100653217 /// NTM (11731650_a_at) / RFU MAPK11 (11762145_a_at) / Fold change /veh MAPK11 (11762145_a_at) / RFU FIZ1 (11724087_x_at) / Fold change /veh FIZ1 (11724087_x_at) / RFU OASL (11726364_x_at) / Fold change /veh OASL (11726364_x_at) / RFU SOX15 (11748057_x_at) / Fold change /veh SOX15 (11748057_x_at) / RFU CD79A (11719716_a_at) / Fold change /veh CD79A (11719716_a_at) / RFU HIST1H1D (11736915_at) / Fold change /veh HIST1H1D (11736915_at) / RFU CASKIN2 (11723855_a_at) / Fold change /veh CASKIN2 (11723855_a_at) / RFU LOC730098 (11760151_x_at) / Fold change /veh LOC730098 (11760151_x_at) / RFU OR4N2 (11742367_at) / Fold change /veh OR4N2 (11742367_at) / RFU PRRT2 (11749266_a_at) / Fold change /veh PRRT2 (11749266_a_at) / RFU SNX32 (11753110_a_at) / Fold change /veh SNX32 (11753110_a_at) / RFU CDHR5 (11726645_a_at) / Fold change /veh CDHR5 (11726645_a_at) / RFU RCAN1 (11760418_a_at) / Fold change /veh RCAN1 (11760418_a_at) / RFU FAM167A (11723789_a_at) / Fold change /veh FAM167A (11723789_a_at) / RFU FAM26E (11764081_at) / Fold change /veh FAM26E (11764081_at) / RFU ISYNA1 (11749810_s_at) / Fold change /veh ISYNA1 (11749810_s_at) / RFU ACY1 (11761880_at) / Fold change /veh ACY1 (11761880_at) / RFU 11764098_at / Fold change /veh 11764098_at / RFU SAMD14 (11745864_x_at) / Fold change /veh SAMD14 (11745864_x_at) / RFU NPB (11741838_a_at) / Fold change /veh NPB (11741838_a_at) / RFU TMPRSS6 (11731388_a_at) / Fold change /veh TMPRSS6 (11731388_a_at) / RFU KRTAP10-2 (11738614_at) / Fold change /veh KRTAP10-2 (11738614_at) / RFU ARHGAP8 /// PRR5-ARHGAP8 (11727945_x_at) / Fold change /veh ARHGAP8 /// PRR5-ARHGAP8 (11727945_x_at) / RFU KRTAP5-7 /// NADSYN1 (11734609_at) / Fold change /veh KRTAP5-7 /// NADSYN1 (11734609_at) / RFU RASL12 (11751679_a_at) / Fold change /veh RASL12 (11751679_a_at) / RFU CDKN2B (11736163_a_at) / Fold change /veh CDKN2B (11736163_a_at) / RFU PRF1 (11729649_at) / Fold change /veh PRF1 (11729649_at) / RFU, ZNF638 /// ZNF638-IT1 / Fold change vs veh, ZNF638 /// ZNF638-IT1 / RFU, PANK3 / Fold change vs veh, PANK3 / RFU, SH3YL1 / Fold change vs veh, SH3YL1 / RFU, ZEB2 / Fold change vs veh, ZEB2 / RFU, NRIP1 / Fold change vs veh, NRIP1 / RFU, PTTG1IP / Fold change vs veh, PTTG1IP / RFU, CAPN2 / Fold change vs veh, CAPN2 / RFU, MED14 / Fold change vs veh, MED14 / RFU, SNORA58 / Fold change vs veh, SNORA58 / RFU, C1orf63 / Fold change vs veh, C1orf63 / RFU, LRRFIP1 / Fold change vs veh, LRRFIP1 / RFU, NDUFAF7 / Fold change vs veh, NDUFAF7 / RFU, SLC12A2 / Fold change vs veh, SLC12A2 / RFU, IBTK / Fold change vs veh, IBTK / RFU, ESF1 / Fold change vs veh, ESF1 / Fold change vs veh, TMEM50B / RFU, TAOK1 / Fold change vs veh, TAOK1 / RFU, ACBD3 / Fold change vs veh, ACBD3 / RFU, TMA16 / Fold change vs veh, TMA16 / RFU, RWDD3 / Fold change vs veh, RWDD3 / RFU, BCAT1 / Fold change vs veh, BCAT1 / RFU, EDEM3 / Fold change vs veh, EDEM3 / RFU, TMEM33 / Fold change vs veh, TMEM33 / RFU, WDR75 / Fold change vs veh, WDR75 / RFU, AHCTF1 / Fold change vs veh, AHCTF1 / RFU, TFRC / Fold change vs veh, TFRC / RFU, ZDHHC17 / Fold change vs veh, ZDHHC17 / RFU, NOM1 / Fold change vs veh, NOM1 / RFU, ARL8B / Fold change vs veh, ARL8B / RFU, ZBTB11 / Fold change vs veh, ZBTB11 / RFU, TAMM41 / Fold change vs veh, TAMM41 / RFU, KIAA1704 /// LOC100996395 / Fold change vs veh, KIAA1704 /// LOC100996395 / RFU, ING1 / Fold change vs veh, ING1 / RFU, TRMT61B / Fold change vs veh, TRMT61B / RFU, FUBP3 / Fold change vs veh, FUBP3 / RFU, TP53 / Fold change vs veh, TP53 / RFU, TNKS2 / Fold change vs veh, TNKS2 / RFU, ZFP14 / Fold change vs veh, ZFP14 / RFU, ACTR2 / Fold change vs veh, ACTR2 / RFU, PPP3R1 / Fold change vs veh, PPP3R1 / RFU, PIK3R1 / Fold change vs veh, PIK3R1 / RFU, HNRNPA1 / Fold change vs veh, HNRNPA1 / RFU, RNF170 / Fold change vs veh, RNF170 / RFU, ZNF28 / Fold change vs veh, ZNF28 / RFU, RNGTT / Fold change vs veh, RNGTT / RFU, OGT / Fold change vs veh, OGT / RFU, BRD1 / Fold change vs veh, BRD1 / RFU, MARS / Fold change vs veh, MARS / RFU, ZNF655 / Fold change vs veh, ZNF655 / RFU, FAHD1 / Fold change vs veh, FAHD1 / RFU, BDP1 / Fold change vs veh, BDP1 / RFU, LRRCC1 / Fold change vs veh, LRRCC1 / RFU, ARID1A / Fold change vs veh, ARID1A / RFU, ZNF146 / Fold change vs veh, ZNF146 / RFU, ZNF330 / Fold change vs veh, ZNF330 / RFU, GPN3 / Fold change vs veh, GPN3 / RFU, C9orf123 / Fold change vs veh, C9orf123 / RFU, N4BP2L2 / Fold change vs veh, N4BP2L2 / RFU, ARFIP1 / Fold change vs veh, ARFIP1 / RFU, FAM179B / Fold change vs veh, FAM179B / RFU, BCL10 / Fold change vs veh, BCL10 / RFU, UHRF1BP1L / Fold change vs veh, UHRF1BP1L / RFU, BET1 / Fold change vs veh, BET1 / RFU, CNOT2 / Fold change vs veh, CNOT2 / RFU, ZNF268 / Fold change vs veh, ZNF268 / Fold change vs veh, ZNF507 / RFU, DGCR2 / Fold change vs veh, DGCR2 / RFU, WDSUB1 / Fold change vs veh, WDSUB1 / Fold change vs veh, HSP90B1 /// MIR3652 / RFU, ADSS / Fold change vs veh, ADSS / RFU, GK / Fold change vs veh, GK / RFU, ZNF148 / Fold change vs veh, ZNF148 / RFU, TAF9 / Fold change vs veh, TAF9 / RFU, SLC1A5 / Fold change vs veh, SLC1A5 / RFU, SLMO2 / Fold change vs veh, SLMO2 / RFU, ABCC4 / Fold change vs veh, ABCC4 / RFU, LOC101060439 /// RAP1B / Fold change vs veh, LOC101060439 /// RAP1B / RFU, RFX7 / Fold change vs veh, RFX7 / RFU, GTPBP10 / Fold change vs veh, GTPBP10 / RFU, CNEP1R1 / Fold change vs veh, CNEP1R1 / RFU, BIVM-ERCC5 /// ERCC5 / Fold change vs veh, BIVM-ERCC5 /// ERCC5 / RFU, ILF3 / Fold change vs veh, ILF3 / RFU 11762660_at / Fold change /veh 11762660_at / RFU VCAN (11757783_s_at) / Fold change /veh VCAN (11757783_s_at) / RFU DDX43 (11728927_at) / Fold change /veh DDX43 (11728927_at) / RFU KRT8 (11758188_x_at) / Fold change /veh KRT8 (11758188_x_at) / RFU NKD1 (11759106_at) / Fold change /veh NKD1 (11759106_at) / RFU SRD5A1 (11742802_a_at) / Fold change /veh SRD5A1 (11742802_a_at) / RFU TPSAB1 /// TPSB2 (11721975_s_at) / Fold change /veh TPSAB1 /// TPSB2 (11721975_s_at) / RFU GSTM3 (11746129_a_at) / Fold change /veh GSTM3 (11746129_a_at) / RFU IL23R (11737362_x_at) / Fold change /veh IL23R (11737362_x_at) / RFU TMEM51 (11727254_a_at) / Fold change /veh TMEM51 (11727254_a_at) / RFU PIWIL2 (11732686_x_at) / Fold change /veh PIWIL2 (11732686_x_at) / RFU ORM1 (11744905_x_at) / Fold change /veh ORM1 (11744905_x_at) / RFU CCDC152 (11743942_at) / Fold change /veh CCDC152 (11743942_at) / RFU ECM1 (11717891_a_at) / Fold change /veh ECM1 (11717891_a_at) / RFU IL23R (11748794_a_at) / Fold change /veh IL23R (11748794_a_at) / RFU TNFAIP8L3 (11732012_x_at) / Fold change /veh TNFAIP8L3 (11732012_x_at) / RFU MBOAT4 (11741988_at) / Fold change /veh MBOAT4 (11741988_at) / RFU 11764193_at / Fold change /veh 11764193_at / RFU TMEM53 (11763286_at) / Fold change /veh TMEM53 (11763286_at) / RFU MAGEB2 (11727129_at) / Fold change /veh MAGEB2 (11727129_at) / RFU TMEM200A (11744735_a_at) / Fold change /veh TMEM200A (11744735_a_at) / RFU CCDC152 (11751479_a_at) / Fold change /veh CCDC152 (11751479_a_at) / RFU FAM211A (11726209_a_at) / Fold change /veh FAM211A (11726209_a_at) / RFU RGS16 (11746705_a_at) / Fold change /veh RGS16 (11746705_a_at) / RFU VCAN (11755009_s_at) / Fold change /veh VCAN (11755009_s_at) / RFU RHOB (11743442_s_at) / Fold change /veh RHOB (11743442_s_at) / RFU RGS16 (11720943_a_at) / Fold change /veh RGS16 (11720943_a_at) / RFU RGS16 (11720944_at) / Fold change /veh RGS16 (11720944_at) / RFU, VPS4B / Fold change vs veh, VPS4B / RFU, CREB1 / Fold change vs veh, CREB1 / RFU, DNAJC13 / Fold change vs veh, DNAJC13 / RFU, GNAQ / Fold change vs veh, GNAQ / RFU, CDK5R1 / Fold change vs veh, CDK5R1 / RFU, ZRANB3 / Fold change vs veh, ZRANB3 / RFU, CUL4A / Fold change vs veh, CUL4A / RFU, CCNY / Fold change vs veh, CCNY / RFU, UFL1 / Fold change vs veh, UFL1 / RFU, COG3 / Fold change vs veh, COG3 / RFU, DIAPH2 / Fold change vs veh, DIAPH2 / RFU, SKA2 / Fold change vs veh, SKA2 / RFU, AFF3 / Fold change vs veh, AFF3 / RFU, LMF1 / Fold change vs veh, LMF1 / RFU, IPO11 / Fold change vs veh, IPO11 / RFU, DFFB / Fold change vs veh, DFFB / RFU, FOXP1 / Fold change vs veh, FOXP1 / RFU, CARD8 / Fold change vs veh, CARD8 / RFU, STRN3 / Fold change vs veh, STRN3 / RFU, ADK / Fold change vs veh, ADK / RFU, RASSF2 / Fold change vs veh, RASSF2 / RFU, WIPF1 / Fold change vs veh, WIPF1 / RFU, LARP1B / Fold change vs veh, LARP1B / RFU, RASA1 / Fold change vs veh, RASA1 / RFU, RB1 / Fold change vs veh, RB1 / RFU, PPFIA1 / Fold change vs veh, PPFIA1 / RFU, MAT2A / Fold change vs veh, MAT2A / RFU, CCT5 / Fold change vs veh, CCT5 / RFU, WDR92 / Fold change vs veh, WDR92 / RFU, CUX1 / Fold change vs veh, CUX1 / RFU, TTC7A / Fold change vs veh, TTC7A / RFU, TMEM135 / Fold change vs veh, TMEM135 / RFU, DEPTOR / Fold change vs veh, DEPTOR / RFU, CPM / Fold change vs veh, CPM / RFU, DNAJB6 / Fold change vs veh, DNAJB6 / RFU, CACNA2D3 / Fold change vs veh, CACNA2D3 / RFU, DTX4 / Fold change vs veh, DTX4 / RFU, TFCP2 / Fold change vs veh, TFCP2 / RFU, GMCL1 /// GMCL1P1 / Fold change vs veh, GMCL1 /// GMCL1P1 / RFU, AEBP2 / Fold change vs veh, AEBP2 / RFU, SNHG1 /// SNORD22 /// SNORD25 /// SNORD26 /// SNORD27 /// SNORD28 /// SNORD29 /// SNORD31 / Fold change vs veh, SNHG1 /// SNORD22 /// SNORD25 /// SNORD26 /// SNORD27 /// SNORD28 /// SNORD29 /// SNORD31 / Fold change (Aza/veh), C12orf56 (ProbeSet 11735607_a_at) / Fold change (ACY-1035/veh), C12orf56 (ProbeSet 11735607_a_at) / Fold change (Aza/veh), FGFR1OP (ProbeSet 11751329_s_at) / Fold change (ACY-1035/veh), FGFR1OP (ProbeSet 11751329_s_at) / Fold change (Aza/veh), VPS36 (ProbeSet 11739960_a_at) / Fold change (ACY-1035/veh), VPS36 (ProbeSet 11739960_a_at) / RFU SYPL1 (11715823_x_at) / Fold change /veh SYPL1 (11715823_x_at) / RFU IGFBP7 (11715501_s_at) / Fold change /veh IGFBP7 (11715501_s_at) / RFU REEP3 (11722064_at) / Fold change /veh REEP3 (11722064_at) / RFU IGLL1 (11728026_x_at) / Fold change /veh IGLL1 (11728026_x_at): dose or concentration left out as unconfirmed
Conditions: ProbeSet 11738335_x_at; LIST B

Nc1ncn([C@@H]2O[C@H](CO)[C@@H](O)[C@H]2O)c(=O)n1 [azacitidine]
Fold change vs veh, TP53: 0.89
